According to patent US7491793B2 (priority 2003, dated 2009):

System: Lassa virus (Josiah strain)
Assay type: cell-based

| Sequence | inhibition of plaque formation by LasV |
| --- | --- |
| NYSKYWYLNHTTTGR [SEQ ID NO:30] | can inhibit plaque formation by LasV |
| GWTFWTLSDSEGKDTPGGY [SEQ ID NO:31] | inhibited infection by LasV, but to a lesser extent |
